Measured values from patent US20180036289A1 (Gilead Sciences, Inc., priority 2016, published 2018).

Columns and labels:
Format in all cases: cell-based
LS 174T = assay: Cell proliferation assay (ATPlite), drug with vs without cobicistat; details: LS 174T cell line; 120 hours incubation
Summary of the method: (§1)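 Luminescent ATP readout (ATPlite 1Step), 10 min dark incubation. Exposure: 120 h, 37 °C, humidified 5% CO2. Concentrations: 3.16×10^−5 to 3.16×10^−9 M, 3.16-fold apart.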

RKO = assay: as above; details: RKO cell line; 120 hours incubation
Summary of the method: as §1

COLO 829 = assay: as above; details: COLO 829 cell line; 120 hours incubation
Summary of the method: as §1

NCI-H460 = assay: as above; details: NCI-H460 cell line; 120 hours incubation
Summary of the method: as §1

Jurkat E6.1 = assay: as above; details: Jurkat E6.1 cell line; 120 hours incubation
Summary of the method: as §1

U-2 OS = assay: as above; details: U-2 OS cell line; 120 hours incubation
Summary of the method: as §1

cell lines tested = assay: Cell proliferation assay, summary across all cell lines and drugs; details: comparison among the six primary drugs
Protocol: All cell lines were obtained from the American Type Culture Collection (ATCC) Manassas, Va. (US). Master and working cell banks (MCB and WCB) were prepared by subculturing in ATCC-recommended media and freezing protocols (www.atcc.org). Cell line stocks for the assays were prepared from the WCB. The MCB, WCBs and assay stocks were prepared within respectively 3, 6 and 9 passages of the ATCC vial.
Solid powders of reference compounds were weighed on a calibrated balance and dissolved in 100% DMSO. DMSO samples were stored at room temperature. At the day of the experiment, the compound stock was diluted in 3.16 fold steps in 100% DMSO to obtain a 9-point dilution series. This was further diluted 31.6 times in 20 mM sterile Hepes buffer pH 7.4. A volume of 5 μl was transferred to the cells to generate a test concentration range from 3.16×10^−5M to 3.16×10^−9 M in duplicate. The final DMSO concentration during incubation was […] in all wells.
An assay stock was thawed and diluted in its ATCC recommended medium and dispensed in a 384-well plate, depending on the cell line used, at a concentration of 200-3200 cells per well in 45 μl medium. For each used cell line the optimal cell density is used. The margins of the plate were filled with phosphate-buffered saline. Plated cells were incubated in a humidified atmosphere of 5% CO2 at 37° C. After 24 hours, 5 μl of compound dilution was added and plates were further incubated for another 120 hours. After 120 hours, 25 μl of ATPlite 1Step™ (PerkinElmer) solution was added to each well, and subsequently shaken for 2 minutes. After 10 minutes of incubation in the dark, the luminescence was recorded on an Envision multimode reader (PerkinElmer).
IC50s were calculated by non-linear regression using IDBS XLfit 5. The percentage growth after 120 h (%-growth) was calculated as follows: 100%×(luminescencet=120h/luminescenceuntreated,t=120h). This was fitted to the ^10log compound concentration (conc) by a 4-parameter logistics curve: %−growth=bottom+(top−bottom)/(1+10^(log IC50-conc)*hill)), where hill is the Hill-coefficient, and bottom and top the asymptotic minimum and maximum cell growth that the compound allows in that assay.

| Compound | Fold change in IC50 (IC50 [Drug + Cobicistat]/IC50 [Drug]) (LS 174T) [fold] | Fold change in IC50 (IC50 [Drug + Cobicistat]/IC50 [Drug]) (RKO) [fold] | Fold change in IC50 (IC50 [Drug + Cobicistat]/IC50 [Drug]) (COLO 829) [fold] | Fold change in IC50 (IC50 [Drug + Cobicistat]/IC50 [Drug]) (NCI-H460) [fold] | Fold change in IC50 (IC50 [Drug + Cobicistat]/IC50 [Drug]) (Jurkat E6.1) [fold] | Fold change in IC50 (IC50 [Drug + Cobicistat]/IC50 [Drug]) (U-2 OS) [fold] | extent of boosting by cobicistat (cell lines tested) |
| --- | --- | --- | --- | --- | --- | --- | --- |
| CC(=O)O[C@H]1C(=O)[C@@]2(C)[C@H]([C@H](OC(=O)c3ccccc3)[C@]3(O)C[C@H](OC(=O)[C@H](O)[C@@H](NC(=O)c4ccccc4)c4ccccc4)C(C)=C1C3(C)C)[C@]1(OC(C)=O)CO[C@@H]1C[C@@H]2O [paclitaxel] | 1.8 | 3.3 | 4.1 | 2.0 | 2.5 | 3.2 | – |
| CC(=O)O[C@@]12CO[C@@H]1C[C@H](O)[C@@]1(C)C(=O)[C@H](O)C3=C(C)[C@@H](OC(=O)[C@H](O)[C@@H](NC(=O)OC(C)(C)C)c4ccccc4)C[C@@](O)([C@@H](OC(=O)c4ccccc4)[C@H]21)C3(C)C [docetaxel] | 2.8 | 3.8 | 3.7 | 2.1 | 2.2 | 4.3 | boosted to the greatest extent |
| COc1cccc2c1C(=O)c1c(O)c3c(c(O)c1C2=O)C[C@@](O)(C(=O)CO)C[C@@H]3O[C@H]1C[C@H](N)[C@H](O)[C@H](C)O1 [doxorubicin] | 3.6 | 2.9 | 3.8 | 2.0 | 2.5 | 3.0 | – |
| CC[C@]1(O)C[C@@H]2CN(CCc3c([nH]c4ccccc34)[C@@](C(=O)OC)(c3cc4c(cc3OC)N(C)[C@H]3[C@@](O)(C(=O)OC)[C@H](OC(C)=O)[C@]5(CC)C=CCN6CC[C@]43[C@@H]65)C2)C1 [vinblastine] | 3.4 | 3.6 | 6.3 | 3.4 | 2.5 | 4.4 | boosted to the greatest extent |
| CC[C@]1(O)C[C@H]2CN(CCc3c([nH]c4ccccc34)[C@@](C(=O)OC)(c3cc4c(cc3OC)N(C=O)[C@H]3[C@@](O)(C(=O)OC)[C@H](OC(C)=O)[C@]5(CC)C=CCN6CC[C@]43[C@@H]65)C2)C1 [vincristine] | 2.5 | 3.7 | 4.4 | 3.1 | 2.8 | 3.5 | boosted to the greatest extent |
| Cc1nc(Nc2ncc(C(=O)Nc3c(C)cccc3Cl)s2)cc(N2CCN(CCO)CC2)n1 [dasatinib] | – | – | – | – | – | 4.0 | – |
